Experimental data as given in US12029748B2, “Synergistic composition for maintenance of healthy balance of microflora” (KIMBERLY-CLARK WORLDWIDE, INC., priority 2017, dated 2024).

Experiments:
L. crispatus and E. coli = assay: Therapeutic Effect Protocol: L. crispatus / E. coli co-culture, ratio after 36 hours; assay type: cell-based, Lactobacillus crispatus; E. coli; conditions: for Therapeutic Efficacy Results (Lactobacillus/E. coli) 0.10%: nitrogen compound 0.10 wt/vol % with 1.0 wt/vol % α methyl-D glucoside (10:1); for Therapeutic Efficacy Results (Lactobacillus/E. coli) 0.10% / Therapeutic Efficacy Results (Lactobacillus/E. coli) 0.50%: 36 hours anaerobic co-culture, 37° C.; for Therapeutic Efficacy Results (Lactobacillus/E. coli) 0.50%: nitrogen compound 0.50 wt/vol % with 1.0 wt/vol % α methyl-D glucoside (2:1); for Therapeutic effect when ratio α methyl-D glucoside : nitrogen compound is at least about 2:1, but not at 1:1: with α methyl-D glucoside, ratio at least about 2:1, not 1:1
Summary of the method: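 L. crispatus and E. coli were mixed 1,000:1 (10^5-10^6 and 100-1,000 CFU per 5 mL tube) in LAPT-g medium at pH 6.5, containing 1% α-methyl-D-glucoside plus nitrogen compound at 0.1-1% w/v, in duplicate. After 36 h anaerobic incubation at 37 °C, each species was counted by selective plating (MRS anaerobic, TSA aerobic), and the L. crispatus:E. coli ratio and final pH were recorded.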

[1] = Solubility screening of the composition (visual precipitates or turbidity); assay type: physicochemical; conditions: for Solubility of the composition, 1.00%: nitrogen compound 1.00 wt/vol % with 1.0 wt/vol % α methyl-D glucoside in medium; for Solubility of the composition, 0.50%: nitrogen compound 0.50 wt/vol % with 1.0 wt/vol % α methyl-D glucoside in medium
Text: Each composition in Table 1 went through initial screening measures of solubility and initial pH (“I pH”). […] When a specific concentration of a nitrogen containing compound was insoluble, the initial and final pH (“F pH”) of the combined composition was not measured and accordingly are each marked as “NM.” Additionally, initial pH of the composition was checked as a screening measure. The initial pH was marked as either Low (“L”), High (“H”), or Pass (“P”). A Low initial pH corresponds to an initial pH being less than 5.5, a High initial pH corresponds to an initial pH being greater than 6.5, and a Pass initial pH corresponds to the pH being at or between 5.5-6.5. […] As part of the Therapeutic Effect Protocol, a final pH was also measured after the compositions that were tested against the Lactobacillus and E. coli.
All of the ingredients in Table 2 were combined and the pH was adjusted to 6.5. […] To evaluate the effect of various nitrogen containing therapeutic agents on the growth of bacteria, the LAPT-g media, prepared as described above, was supplemented with various nitrogen containing compound therapeutic agents to a final test concentration between 0.1 and 1.0%. As initial screening measures, solubility and initial pH of each composition were checked. If a specific composition was insoluble (as detected by visual indication of precipitates or turbidity), then no further therapeutic efficacy testing was undertaken on that composition. Additionally, if the initial pH of the composition was below 5.5 (“Low”) or was above 6.5 (“High”), then no further therapeutic efficacy testing was undertaken on that composition.

[2] = Initial pH screening of the composition; assay type: physicochemical; conditions: for I pH (initial pH), 0.10%: nitrogen compound 0.10 wt/vol % with 1.0 wt/vol % α methyl-D glucoside in medium; for I pH (initial pH), 0.50%: nitrogen compound 0.50 wt/vol % with 1.0 wt/vol % α methyl-D glucoside in medium
Summary of the method: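 Compounds were added to LAPT-g medium (pH adjusted to 6.5) at a final 0.1-1.0%. Solubility was judged visually by precipitate or turbidity, and insoluble compositions got no pH measurement. Initial pH was scored Low (<5.5), High (>6.5) or Pass (5.5-6.5), and only soluble Pass compositions went on to efficacy testing.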

## NC(=O)C[C@H](N)C(=O)O [L-Asparagine]
L. crispatus and E. coli
  Therapeutic Efficacy Results (Lactobacillus/E. coli) 0.10%: 1.12
  Therapeutic Efficacy Results (Lactobacillus/E. coli) 0.50%: 1.72
[1]
  Solubility of the composition, 1.00%: Insol.
[2]
  I pH (initial pH), 0.10%: P (a Pass initial pH corresponds to the pH being at or between 5.5-6.5)
  I pH (initial pH), 0.50%: P (a Pass initial pH corresponds to the pH being at or between 5.5-6.5)

## N[C@@H](Cc1c[nH]c2ccccc12)C(=O)O [L-Tryptophan]
L. crispatus and E. coli
  Therapeutic Efficacy Results (Lactobacillus/E. coli) 0.10%: 0.66
  Therapeutic Efficacy Results (Lactobacillus/E. coli) 0.50%: 0.06
[1]
  Solubility of the composition, 1.00%: Insol.
[2]
  I pH (initial pH), 0.10%: P (a Pass initial pH corresponds to the pH being at or between 5.5-6.5)
  I pH (initial pH), 0.50%: P (a Pass initial pH corresponds to the pH being at or between 5.5-6.5)

## O=c1cc[nH]c(=O)[nH]1 [Uracil]
L. crispatus and E. coli
  Therapeutic Efficacy Results (Lactobacillus/E. coli) 0.10%: 0.43
[1]
  Solubility of the composition, 0.50%: Insol.
  Solubility of the composition, 1.00%: Insol.
[2]
  I pH (initial pH), 0.10%: P (a Pass initial pH corresponds to the pH being at or between 5.5-6.5)

## Nc1ncnc2c1ncn2[C@@H]1O[C@H](CO)[C@@H](O)[C@H]1O [Adenosine]
L. crispatus and E. coli
  Therapeutic Efficacy Results (Lactobacillus/E. coli) 0.10%: <100
  Therapeutic Efficacy Results (Lactobacillus/E. coli) 0.50%: 0.97
  Therapeutic effect when ratio α methyl-D glucoside : nitrogen compound is at least about 2:1, but not at 1:1: provided a therapeutic effect
[1]
  Solubility of the composition, 1.00%: Insol.
[2]
  I pH (initial pH), 0.10%: P (a Pass initial pH corresponds to the pH being at or between 5.5-6.5)
  I pH (initial pH), 0.50%: P (a Pass initial pH corresponds to the pH being at or between 5.5-6.5)

## NC(=O)NC1NC(=O)NC1=O (stereo not shown) [Allantoin]
L. crispatus and E. coli
  Therapeutic Efficacy Results (Lactobacillus/E. coli) 0.10%: 0.9
  Therapeutic Efficacy Results (Lactobacillus/E. coli) 0.50%: 1.37
[1]
  Solubility of the composition, 1.00%: Insol.
[2]
  I pH (initial pH), 0.10%: P (a Pass initial pH corresponds to the pH being at or between 5.5-6.5)
  I pH (initial pH), 0.50%: P (a Pass initial pH corresponds to the pH being at or between 5.5-6.5)

## N[C@@H](Cc1ccccc1)C(=O)O [L-Phenylalanine]
L. crispatus and E. coli
  Therapeutic Efficacy Results (Lactobacillus/E. coli) 0.10%: 0.09
[1]
  Solubility of the composition, 0.50%: Insol.
  Solubility of the composition, 1.00%: Insol.
[2]
  I pH (initial pH), 0.10%: P (a Pass initial pH corresponds to the pH being at or between 5.5-6.5)

## CC[C@H](C)[C@H](N)C(=O)O [L-Isoleucine]
L. crispatus and E. coli
  Therapeutic Efficacy Results (Lactobacillus/E. coli) 0.10%: 1.51
[1]
  Solubility of the composition, 0.50%: Insol.
  Solubility of the composition, 1.00%: Insol.
[2]
  I pH (initial pH), 0.10%: P (a Pass initial pH corresponds to the pH being at or between 5.5-6.5)

## N[C@@H](Cc1c[nH]cn1)C(=O)O [L-Histidine]
L. crispatus and E. coli
  Therapeutic Efficacy Results (Lactobacillus/E. coli) 0.10%: 1.11
[1]
  Solubility of the composition, 0.50%: Insol.
  Solubility of the composition, 1.00%: Insol.
[2]
  I pH (initial pH), 0.10%: P (a Pass initial pH corresponds to the pH being at or between 5.5-6.5)

## Nc1ncnc2nc[nH]c12 [Adenine]
[1]; nitrogen compound 0.10 wt/vol % with 1.0 wt/vol % α methyl-D glucoside in medium
  Solubility of the composition, 0.10%: Insol.
[1]
  Solubility of the composition, 0.50%: Insol.
  Solubility of the composition, 1.00%: Insol.

## CC(C)C[C@H](N)C(=O)O [L-Leucine]
L. crispatus and E. coli
  Therapeutic Efficacy Results (Lactobacillus/E. coli) 0.10%: 2.9
  Therapeutic Efficacy Results (Lactobacillus/E. coli) 0.50%: 0.24
  Therapeutic effect when ratio α methyl-D glucoside : nitrogen compound is at least about 2:1, but not at 1:1: provided a therapeutic effect
[1]
  Solubility of the composition, 1.00%: Insol.
[2]
  I pH (initial pH), 0.10%: P (a Pass initial pH corresponds to the pH being at or between 5.5-6.5)
  I pH (initial pH), 0.50%: P (a Pass initial pH corresponds to the pH being at or between 5.5-6.5)
